Experiments:
Conditions in all cases: dose 30 mg/kg
[1] = system: Pliss Lymphosarcoma resistant to rubidomycin; assay: Inhibition of growth of resistant tumour strains; type: in vivo, rats
M-1 Sarcoma = assay: Inhibition of tumor growth in implanted tumors; type: in vivo, mice and rats
Breast Cancer RMC-1 = assay: Inhibition of tumor growth in implanted tumors; type: in vivo, mice and rats
[2] = system: Sarcoma-45 resistant to prospidine; assay: Inhibition of growth of resistant tumour strains; type: in vivo, rats
[3] = system: Sarcoma-45 resistant to 5-fluorouracil; assay: Inhibition of growth of resistant tumour strains; type: in vivo, rats
Sarcoma-45 = assay: Inhibition of tumor growth in implanted tumors; type: in vivo, rats
[4] = system: Pliss Lymphosarcoma resistant to leucoeffdine; assay: Inhibition of growth of resistant tumour strains; tumor disappearance; type: in vivo, rats
[5] = system: Sarcoma-45 resistant to rubidomycin; assay: Inhibition of growth of resistant tumour strains; type: in vivo, rats
Worker's carcinosarcoma = assay: Inhibition of tumor growth in implanted tumors; type: in vivo, mice and rats
Pliss lymphosarcoma = assay: Inhibition of tumor growth in implanted tumors; type: in vivo, rats
[6] = system: Alveolar Cancer of the liver; assay: Inhibition of tumor growth in implanted tumors; type: in vivo, mice and rats

In the case of C=C1C(=O)OC2C1CCC1(C)OC13CC1OC1(C)C23 (centres unmarked) [Epoxyarglabin (2), 1(10), 3(4)-diepoxy-guai-11(13)-en-6,12-olid], the “Inhibition of Tumour Strains Growth, % - Resistant Forms - Pliss Lymphosarcoma to rubidomycin” value [1] is reported as 78.0%, the “Inhibition of Tumour Growth, % - M-1 Sarcoma” value (M-1 Sarcoma) is reported as 78.4% and the “Inhibition of Tumour Growth, % - Breast Cancer RMC-1” value (Breast Cancer RMC-1) is reported as 59.6%. For the same molecule, the “Inhibition of Tumour Strains Growth, % - Resistant Forms - Sarcoma-45 to prospidine” value [2] was 70.4%, the “Inhibition of Tumour Strains Growth, % - Resistant Forms - Sarcoma-45 to 5-fluorouracil” value [3] was 66.0% and the “Inhibition of Tumour Growth, % - Sarcoma-45” value (Sarcoma-45) was 88.8%. For the same molecule, the “Inhibition of Tumour Strains Growth, % - Resistant Forms - Pliss Lymphosarcoma to leucoeffdine” value [4] was 79.8%, the “Inhibition of Tumour Strains Growth, % - Resistant Forms - Sarcoma-45 to rubidomycin” value [5] was 78.6% and the “Inhibition of Tumour Growth, % - Worker's carcinosarcoma” value (Worker's carcinosarcoma) was 36.4%. For the same molecule, the “Inhibition of Tumour Growth, % - Pliss lymphosarcoma” value (Pliss lymphosarcoma) was 72.1% and the “Inhibition of Tumour Growth, % - Alveolar Cancer of the liver” value [6] was 70.4%.
